# Experiments:
# [1] = Tmax in Beagle dog at 5 mg/kg, po after 0.033 to 24 hrs by LC/MS/MS analysis; type: ADME, organism-based, Canis lupus familiaris; conditions: in vivo
# [2] = Volume of distribution at steady state in Beagle dog at 1 mg/kg, iv after 0.033 to 24 hrs by LC/MS/MS analysis; type: ADME, organism-based, Canis lupus familiaris; conditions: in vivo, read-out: Vdss
# [3] = Oral bioavailability in cynomolgus monkey at 5 mg/kg after 0.033 to 24 hrs by LC/MS/MS analysis; type: ADME, organism-based, Macaca fascicularis; conditions: in vivo
# [4] = Tmax in Sprague-Dawley rat at 5 mg/kg, po after 0.033 to 24 hrs by LC/MS/MS analysis; type: ADME, organism-based; conditions: in vivo
# [5] = Half life in cynomolgus monkey at 1 mg/kg, iv by LC/MS/MS analysis; type: ADME, organism-based, Macaca fascicularis; conditions: in vivo
# [6] = Cmax in Sprague-Dawley rat at 5 mg/kg, po after 0.033 to 24 hrs by LC/MS/MS analysis; type: ADME, organism-based; set-up: dose 5 mg/kg, route oral; conditions: in vivo
# [7] = Oral bioavailability in Beagle dog at 5 mg/kg after 0.033 to 24 hrs by LC/MS/MS analysis; type: ADME, organism-based, Canis lupus familiaris; conditions: in vivo
# [8] = Drug metabolism in human liver microsomes assessed as oxidation of imdazopyridine core at 10 uM after 60 mins by LC/MS/MS analysis; type: ADME; conditions: 1 h
# [9] = Permeability from apical to basolateral side in human Caco2 cells at 10 uM after 60 mins by LC/MS/MS analysis; type: ADME, cell-based; conditions: Caco-2, read-out: permeability
# [10] = Half life in Beagle dog at 1 mg/kg, iv by LC/MS/MS analysis; type: ADME, organism-based, Canis lupus familiaris; conditions: in vivo
# [11] = test system: Rattus norvegicus; assay: Ex vivo receptor occupancy at P2X7 receptor in po dosed rat brain hippocampal tissue assessed as plasma concentration required for [3H]-(S)-7-(2-chloro-3-(trifluoromethyl)benzyl)-6-methyl-3-(pyrazin-2-yl)-6,7-dihydro-[1,2,4]triazolo[4,3-a]pyrazin-8(5H)-one displacement after 30 mins; type: functional, organism-based
# [12] = Brain tissue binding in rat brain homogenate at 5 uM after 5 hrs by LC/MS/MS analysis; conditions: in vitro
# [13] = test system: Rattus norvegicus; assay: Toxicity in rat assessed as increase in total serum cholesterol at 125 to 250 mg/kg, po administered for 4 days followed by necropsy on day 5 post treatment by histological analysis; type: organism-based; conditions: in vivo, 96 h
# [14] = Volume of distribution at steady state in Sprague-Dawley rat at 1 mg/kg, iv after 0.033 to 24 hrs by LC/MS/MS analysis; type: ADME, organism-based; conditions: in vivo, read-out: Vdss
# [15] = Tmax in cynomolgus monkey at 5 mg/kg, po after 0.033 to 24 hrs by LC/MS/MS analysis; type: ADME, organism-based, Macaca fascicularis; conditions: in vivo
# [16] = Clearance in Sprague-Dawley rat at 1 mg/kg, iv after 0.033 to 24 hrs by LC/MS/MS analysis; type: ADME, organism-based; conditions: in vivo
# [17] = Solubility of compound in phosphate buffer at pH 2 at room temperature after 3 days
# [18] = test system: Rattus norvegicus; assay: Toxicity in rat assessed as induction of central lobular hepatocellular necrosis at 250 mg/kg/day, po administered for 4 days followed by necropsy on day 5 post treatment by histological analysis; type: organism-based; conditions: in vivo, 96 h
# [19] = Protein binding in human plasma at 1 uM after 6 hrs by LC/MS/MS based equilibrium dialysis method; type: ADME, cell-free; conditions: read-out: PPB (converted)
# [20] = Cmax in Beagle dog at 5 mg/kg, po after 0.033 to 24 hrs by LC/MS/MS analysis; type: ADME, organism-based, Canis lupus familiaris; set-up: dose 5 mg/kg, route oral; conditions: in vivo
# [21] = Half life in Sprague-Dawley rat at 1 mg/kg, iv by LC/MS/MS analysis; type: ADME, organism-based; conditions: in vivo
# [22] = test system: Rattus norvegicus; assay: Toxicity in rat assessed as central lobular hepatocellular degeneration at 250 mg/kg/day, po administered for 4 days followed by necropsy on day 5 post treatment by histological analysis; type: organism-based; conditions: in vivo, 96 h
# [23] = target: T1, CYP3A4 (Homo sapiens, UniProt P08684); assay: Inhibition of CYP3A4 in human liver microsomes using midazolam as substrate assessed as reduction in 1-OH-midazolam formation at 10 uM by LC/MS/MS analysis; type: ADME; conditions: probe midazolam
# [24] = Clearance in cynomolgus monkey at 1 mg/kg, iv after 0.033 to 24 hrs by LC/MS/MS analysis; type: ADME, organism-based, Macaca fascicularis; conditions: in vivo
# [25] = target: T1, CYP3A4; assay: Inhibition of CYP3A4 in human liver microsomes using midazolam as substrate assessed as reduction in 1-OH-midazolam formation at 5 uM by LC/MS/MS analysis; type: ADME; conditions: probe midazolam
# [26] = target: T1, CYP3A4; assay: Inhibition of CYP3A4 in human liver microsomes using midazolam as substrate assessed as reduction in 1-OH-midazolam formation at 2.5 uM by LC/MS/MS analysis; type: ADME; conditions: probe midazolam
# [27] = test system: Rattus norvegicus; assay: Toxicity in rat assessed as CNS side effects up to 250 mg/kg, po for 4 days followed by necropsy on day 5 post treatment; type: organism-based; conditions: in vivo, 96 h
# [28] = Volume of distribution at steady state in cynomolgus monkey at 1 mg/kg, iv after 0.033 to 24 hrs by LC/MS/MS analysis; type: ADME, organism-based, Macaca fascicularis; conditions: in vivo, read-out: Vdss
# [29] = Cmax in cynomolgus monkey at 5 mg/kg, po after 0.033 to 24 hrs by LC/MS/MS analysis; type: ADME, organism-based, Macaca fascicularis; set-up: dose 5 mg/kg, route oral; conditions: in vivo
# [30] = test system: Rattus norvegicus; assay: Ex vivo receptor occupancy at P2X7 receptor in po dosed rat brain hippocampal tissue assessed as brain concentration required for [3H]-(S)-7-(2-chloro-3-(trifluoromethyl)benzyl)-6-methyl-3-(pyrazin-2-yl)-6,7-dihydro-[1,2,4]triazolo[4,3-a]pyrazin-8(5H)-one displacement after 30 mins; type: functional, organism-based
# [31] = target: T2, P2X purinoceptor 7 (Mus musculus, UniProt Q9Z1M0); assay: Antagonist activity at P2X7 receptor in LPS-stimulated mouse whole blood assessed as inhibition of Bz-ATP-induced IL-1beta release incubated for 30 mins after LPS stimulation for 1 hr followed by agonist addition measured after […] by ELISA; type: tissue-based
# T2 sequence (Q9Z1M0 whole entry): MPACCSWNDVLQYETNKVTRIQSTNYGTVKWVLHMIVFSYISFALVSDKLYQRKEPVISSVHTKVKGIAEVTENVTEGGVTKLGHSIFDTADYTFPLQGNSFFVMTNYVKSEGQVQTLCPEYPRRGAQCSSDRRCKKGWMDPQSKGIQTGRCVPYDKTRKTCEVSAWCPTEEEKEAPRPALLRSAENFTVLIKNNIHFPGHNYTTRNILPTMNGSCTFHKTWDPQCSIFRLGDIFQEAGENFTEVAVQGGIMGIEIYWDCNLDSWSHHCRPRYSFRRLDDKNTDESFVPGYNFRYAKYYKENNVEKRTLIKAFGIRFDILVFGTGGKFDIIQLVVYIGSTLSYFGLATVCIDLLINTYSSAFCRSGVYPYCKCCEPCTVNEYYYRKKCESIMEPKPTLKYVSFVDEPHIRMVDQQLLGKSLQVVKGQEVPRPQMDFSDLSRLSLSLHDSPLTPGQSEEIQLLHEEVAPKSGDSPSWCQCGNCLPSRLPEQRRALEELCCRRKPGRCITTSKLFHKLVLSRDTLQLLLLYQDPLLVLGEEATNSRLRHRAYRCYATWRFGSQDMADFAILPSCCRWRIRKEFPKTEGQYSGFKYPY
# T1 sequence (P08684 whole entry): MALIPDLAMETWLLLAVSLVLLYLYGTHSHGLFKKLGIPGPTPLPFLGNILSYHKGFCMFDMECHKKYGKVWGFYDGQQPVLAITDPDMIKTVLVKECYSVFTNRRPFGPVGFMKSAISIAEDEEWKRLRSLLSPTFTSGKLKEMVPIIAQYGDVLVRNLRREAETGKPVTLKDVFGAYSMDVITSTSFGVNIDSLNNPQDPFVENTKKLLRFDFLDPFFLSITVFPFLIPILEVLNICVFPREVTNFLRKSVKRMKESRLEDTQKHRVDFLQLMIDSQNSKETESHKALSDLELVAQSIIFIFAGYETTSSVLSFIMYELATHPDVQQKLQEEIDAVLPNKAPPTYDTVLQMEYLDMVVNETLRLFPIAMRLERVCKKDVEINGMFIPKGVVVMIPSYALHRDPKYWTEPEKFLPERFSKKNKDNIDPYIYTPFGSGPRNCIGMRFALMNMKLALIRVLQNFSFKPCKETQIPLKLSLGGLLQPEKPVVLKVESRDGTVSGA
compound,measurement,setting,value
C[C@@H]1c2ncn(-c3ccc(F)cn3)c2CCN1C(=O)c1cccc(C(F)(F)F)c1Cl,Tmax,[1],0.5 h
same,Vd,[2],3.6 L/kg
same,bioavailability,[3],54%
same,Tmax,[4],1 h
same,half-life,[5],4.2 h
same,Cmax,[6],375 ng/mL
same,bioavailability,[7],> 100%
same,Drug metabolism,[8],Metabolite_Detected
same,"Papp A→B at 1 h, 10 µM",[9],65 ×10⁻⁶ cm/s
same,half-life,[10],11.9 h
same,fIC50,[11],15 nM
same,EC50,"[11]; Rattus norvegicus, P2X7, Brain/Plasma",0.125 µg/mL
same,Brain tissue binding,[12],98.5%
same,Activity,[13],Toxic
same,Vd,[14],3.8 L/kg
same,Tmax,[15],2.3 h
same,clearance,[16],30 mL/min/kg
same,solubility at 72 h,[17],> 400 µM
same,Activity,[18],Toxic
same,"fraction unbound at 6 h, 1 µM",[19],0.055
same,Cmax,[20],1250 ng/mL
same,half-life,[21],1.7 h
same,Activity,[22],Toxic
same,inhibition at 10 µM,[23],74%
same,clearance,[24],14 mL/min/kg
same,inhibition at 5 µM,[25],63%
same,inhibition at 2.5 µM,[26],52%
same,Activity,[27],Non-Toxic
same,Vd,[28],2.1 L/kg
same,Cmax,[29],389 ng/mL
same,fIC50,[30],12 nM
same,EC50,"[30]; Rattus norvegicus, P2X7",0.362 µg/mL
same,IC50,[31],160 nM

# — ChEMBL document CHEMBL3856233, “Identification of (R)-(2-Chloro-3-(trifluoromethyl)phenyl)(1-(5-fluoropyridin-2-yl)-4-methyl-6,7-dihydro-1H-imidazo[4,5-c]pyridin-5(4H)-yl)methanone (JNJ 54166060), a Small Molecule Antagonist of the P2X7 receptor” (J Med Chem, 2016)
